Entries after “also recorded” stand apart in the source; their conditions may differ. Where two headings read alike, the source gives them in different places.
How the values were obtained:
[1] = biological target: ER-β (Rattus norvegicus (Rat), UniProt Q62986); experiment: ER-β transactivation (ERE-LUC) in COS or 293 cells; type: cell-based; conditions: for activation at 0.1 µM: HEK293, 48 h
[2] = biological target: ER-α (Rattus norvegicus (Rat), UniProt P06211); type: cell-based; conditions: 100 nM compound compared to 1 nM estradiol
Procedure: COS or 293 cells were plated in DME without phenol red+10% cs FBS at 90,000 cells per well in 24 well plates, and were transfected with 0.25 μg of the vector “ERE-LUC”, where a firefly luciferase gene was driven by two estrogen responsive elements and 0.02 μg of the control CMV-LUC, Renilla where a luciferase gene was driven by a CMV promoter. […] All the receptors were cloned from rat tissue into the PCR3.1 vector backbone. Twenty four hours post transfection, cells were treated with compounds of this invention, estrogen, DHT, and other NRBAs or combinations thereof. Cells were harvested 48 hrs after transfection, and assayed for firefly and Renilla luciferase activity.

[3] = biological target: ERβ ligand binding domain (Homo sapiens, UniProt Q92731); experiment: Competitive [3H]-estradiol binding assay, ER-β (Example 21); conditions: for inhibition at 0.1 µM: read-out: Percent Inhibition of [3H]-Estradiol Binding to ER-β; for Ki: read-out: ER-β binding constant (Ki)
Chain of ERβ ligand binding domain (Q92731 whole entry, looked up, the tested form may be a part): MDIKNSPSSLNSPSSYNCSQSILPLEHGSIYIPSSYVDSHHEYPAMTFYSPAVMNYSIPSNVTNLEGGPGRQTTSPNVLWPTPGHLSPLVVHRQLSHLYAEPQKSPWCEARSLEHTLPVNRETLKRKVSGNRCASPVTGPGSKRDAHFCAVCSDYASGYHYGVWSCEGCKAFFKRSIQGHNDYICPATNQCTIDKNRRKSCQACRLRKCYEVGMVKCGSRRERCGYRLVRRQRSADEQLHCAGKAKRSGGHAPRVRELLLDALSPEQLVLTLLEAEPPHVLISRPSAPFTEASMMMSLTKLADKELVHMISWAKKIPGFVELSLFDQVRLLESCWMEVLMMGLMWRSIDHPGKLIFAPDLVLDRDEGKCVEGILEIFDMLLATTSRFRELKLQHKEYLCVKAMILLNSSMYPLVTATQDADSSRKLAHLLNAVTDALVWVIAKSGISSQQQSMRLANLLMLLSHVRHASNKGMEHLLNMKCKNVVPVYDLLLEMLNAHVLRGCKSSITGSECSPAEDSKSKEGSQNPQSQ
Procedure: (§1) ER binding affinity was determined via one of the following methods:
(§2) Briefly, the incubation mixture was filtered through a high affinity protein binding filter, and washed several times to remove any unbound radioactivity. The filter plate was air dried and sealed on the bottom.
(§3) Nonspecific binding was subtracted from total binding to yield specific binding.

[4] = biological target: ERα ligand binding domain (Homo sapiens, UniProt P03372); experiment: Competitive [3H]-estradiol binding assay, ER-α (Example 21); conditions: for inhibition at 0.1 µM: 100 nM of compound, read-out: Percent Inhibition of [3H]-Estradiol Binding to ER-α; for Ki: read-out: ER-α binding constant (Ki)
Chain of ERα ligand binding domain (P03372 whole entry, looked up, the tested form may be a part): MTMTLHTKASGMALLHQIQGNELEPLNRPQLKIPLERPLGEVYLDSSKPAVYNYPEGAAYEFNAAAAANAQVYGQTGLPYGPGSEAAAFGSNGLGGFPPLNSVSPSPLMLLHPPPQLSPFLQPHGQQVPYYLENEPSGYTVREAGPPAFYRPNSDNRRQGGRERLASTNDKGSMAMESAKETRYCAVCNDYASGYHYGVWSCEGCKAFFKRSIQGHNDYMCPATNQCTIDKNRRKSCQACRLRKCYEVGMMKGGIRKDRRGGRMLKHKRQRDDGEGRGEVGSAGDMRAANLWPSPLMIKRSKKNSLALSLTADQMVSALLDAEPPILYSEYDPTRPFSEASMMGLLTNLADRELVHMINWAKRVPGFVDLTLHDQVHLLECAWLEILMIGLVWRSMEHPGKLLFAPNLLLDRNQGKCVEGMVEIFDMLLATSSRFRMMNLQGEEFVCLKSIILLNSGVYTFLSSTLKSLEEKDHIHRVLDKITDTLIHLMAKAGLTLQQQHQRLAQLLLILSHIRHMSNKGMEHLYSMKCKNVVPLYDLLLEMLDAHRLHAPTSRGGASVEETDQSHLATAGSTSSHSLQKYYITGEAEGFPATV
Procedure: as §1, §2, §3

[5] = tested on: rat aorta rings; experiment: Rat aortic ring relaxation; conditions: 10^-6 PE constriction; for EC50: Rattus norvegicus
From the text: Experimental protocol. Equipment used in these studies included a 4-tissue bath system with reservoirs and circulators (RadnotiGlass Technology, Monrovia, Calif.), DSI/Ponemah tissue force analyzer 7700 (Valley View, Ohio), and iWorx/CB Sciencesforce transducers FT-302. The 250 g rats were anesthetized with isoflurane to produce deep anesthesia. The chest of the rat was opened, and about 3 cm length of aorta was removed and placed in a Petri dish containing room temperature Krebs salt solution (KSS, in mM: 120 NaCl, 5 KCl, 1.2 MgSO4.7H20, 2.5 CaCl2.2H2O, 1 KH2PO4, 25 NaHCO3, and 11 glucose). Fat and connective tissue were removed from the aorta taking care not to stretch the vessel. The aorta was then divided into 3-mm-wide rings. Triangular wire holders were inserted through the lumen of the vessel and connected to the force transducer and tissue holder rod in the vessel bath.
Analog-to-digital conversions of force waveforms were accomplished with a DSI/Ponemah tissue force analyzer 7700. The converted data were automatically analyzed with Ponemah Physiology-Smooth Muscle software. All data are summarized as means±standard error. Differences between means were assessed by a conventional ANOVA. This was followed by Student's test. P<0.05 was considered to be statistically significant.
The tension on the rings was adjusted to 1.0 g passive force using the tension adjustment dial for each transducer and allowed to equilibrate for 60 min in the bath with a 95% O2-5% CO2 gas mixture. The rings were washed with fresh buffer every 20 min. Passive force was readjusted to 1.0 g as needed during this period. When rings were stable at 1.0 g of passive force, the baseline was calculated.
Phenylephrine (PE) at a final concentration of […] was added to the bath to contract the ring, and force was allowed to stabilize for 10 min. Then acetylcholine (ACH) at a final concentration of 10^−5 M was added to the precontracted rings to test for endothelial integrity […]. After the initial test for vessel viability and endothelial integrity, the rings were washed three times for 10 min with buffer, allowing it to equilibrate to active force stabilized at 1 g.
Cumulative concentration-response curves to NRBAs were created by increasing the NRBAs concentration in the tissue bath by successive addition of appropriate dilutions of stock solutions to achieve final bath concentrations of 300 nM to 0.15 mM NRBAs.
Table 10 summarizes EC50 values and maximal % decrease of the 10^−6 PE constriction of the aortic ring for individual NRBAs tested

[6] = tested on: Rat Aortic Smooth Muscle Cells (RASMC); experiment: RASMC cell proliferation assay (WST-1); type: cell-based; conditions: for EC50: inhibitory effect sigmoid Emax model, read-out: EC50 for inhibition of RASMC proliferation; for Proliferation of RASMC: concentration between 10-30 μM
Procedure: EC50 values were calculated using WinNonLin 5.0.1 using the inhibitory effect sigmoid Emax model.

[7] = tested on: ARPE-19 cells; experiment: Fluorescent detection of intracellular ROS; type: cell-based, Human; conditions: 150 μM tBH
From the text: Cells were allowed to adhere overnight. […] Removed and washed cells once with HBSS. […] Each drug concentration was done in triplicates.

[8] = read-out: Estradiol activity at 100 nM of NRBA, ER-β

Chain of ER-β (Q62986 whole entry): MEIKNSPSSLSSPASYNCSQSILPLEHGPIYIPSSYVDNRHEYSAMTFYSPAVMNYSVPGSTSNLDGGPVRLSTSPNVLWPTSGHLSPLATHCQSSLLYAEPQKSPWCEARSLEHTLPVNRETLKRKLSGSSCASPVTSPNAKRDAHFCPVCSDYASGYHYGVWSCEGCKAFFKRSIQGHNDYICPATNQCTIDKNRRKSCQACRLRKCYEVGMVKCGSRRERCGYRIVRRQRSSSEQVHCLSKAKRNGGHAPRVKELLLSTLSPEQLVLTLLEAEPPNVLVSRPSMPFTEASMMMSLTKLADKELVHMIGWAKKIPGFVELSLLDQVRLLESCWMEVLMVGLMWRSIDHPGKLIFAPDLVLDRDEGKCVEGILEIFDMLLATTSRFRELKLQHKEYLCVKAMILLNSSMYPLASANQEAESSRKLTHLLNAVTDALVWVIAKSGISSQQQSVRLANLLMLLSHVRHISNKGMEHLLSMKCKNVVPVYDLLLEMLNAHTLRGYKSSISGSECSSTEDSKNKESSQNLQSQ

For COc1cc(O)c2c(=O)n(-c3ccc(O)cc3)cc(Br)c2c1 [12v, 4-bromo-8-hydroxy-2-(4-hydroxyphenyl)-6-methoxyisoquinolin-1(2H)-one], the activation at 0.1 µM [1, 8] was 10% and the “Estradiol activity at 100 nM of NRBA, ER-α” value (“Estradiol activity at 100 nM” for short) [2] was 17%.
O=c1c2c(O)cc(O)cc2ccn1-c1ccc(O)cc1 [12l, 6,8-dihydroxy-2-(4-hydroxyphenyl)-isoquinolin-1(2H)-one] gave an inhibition at 0.1 µM [3] of 34.4% and an inhibition at 0.1 µM [4] of 2.5%.
In the case of O=c1c2ccc(O)cc2c(I)cn1-c1ccc(O)cc1 [12h, 6-hydroxy-2-(4-hydroxyphenyl)-4-iodoisoquinolin-1(2H)-one], the “Ki Ratio (ER-α/ER-β)” value [3] is reported as 22, the inhibition at 0.1 µM [3] is reported as 40.5% and the inhibition at 0.1 µM [4] is reported as 7.7%. For the same molecule, the ER-β agonist activity [1] was “ER-β agonist activity”.
N#Cc1cc(O)cc2c(Br)cn(-c3ccc(O)cc3)c(=O)c12 [14k, 4-bromo-6-hydroxy-2-(4-hydroxyphenyl)-1-oxo-1,2-dihydroisoquinoline-8-carbonitrile] was tested, and the Ki [3] was 46 nM and the Ki [4] was > 394 nM.
For Oc1ccc(-n2ccc3cc(O)cc(O)c3c2=S)cc1 [12p, 2-(4-hydroxyphenyl)-6,8-dihydroxy-isoquinoline-1(2H)-thione], the “Ki Ratio (ER-α/ER-β)” value [3] was 8, the inhibition at 0.1 µM [3] was 80.7% and the inhibition at 0.1 µM [4] was 25.8%. For the same molecule, the ER-β agonist activity [1] was “ER-β agonists; also recorded: ER-β agonist activity”, the activation at 0.1 µM [1, 8] was 85% and the “Estradiol activity at 100 nM” value [2] was 45%.
COc1ccc(-c2cn(-c3ccc(O)cc3)c(=O)c3c(O)cc(O)cc23)cc1 [15g, 6,8-dihydroxy-2-(4-hydroxyphenyl)-4-(4-methoxyphenyl)isoquinolin-1(2H)-one] gave a Ki [3] of 0.48 nM.
In the case of C/C=C/c1cn(-c2ccc(O)cc2)c(=O)c2c(O)cc(O)cc12 [15i, (E)-6,8-dihydroxy-2-(4-hydroxyphenyl)-4-(prop-1-enyl)isoquinolin-1(2H)-one], the “Ki Ratio (ER-α/ER-β)” value [3] is reported as 61.4 and the Ki [4] is reported as 102 nM.
For C=Cc1cn(-c2ccc(O)c(F)c2)c(=O)c2c(O)cc(O)cc12 [15c, 2-(3-fluoro-4-hydroxyphenyl)-6,8-dihydroxy-4-vinylisoquinolin-1(2H)-one], the “Ki Ratio (ER-α/ER-β)” value [3] was 51.7, the Ki [3] was 3.96 nM and the Ki [4] was 205 nM.
With C=Cc1cn(-c2ccc(O)cc2)c(=O)c2c(O)cc(O)cc12 [14l, 6,8-dihydroxy-2-(4-hydroxyphenyl)-4-vinylisoquinolin-1(2H)-one] the “Mean of Maximal % Decrease of the PE constriction of the aortic ring” value [5] was 45.01%, the EC50 [5] was 19800 nM and the EC50 ([6]; Rattus norvegicus) was 9630 nM. The “Proliferation of RASMC” value [6] was “inhibited the proliferation of RASMC in a dose-dependent manner”, the “Inhibition of ROS formation” value [7] was “more than 50%” and the “Prevention of ROS formation / oxidative stress” value [7] was “protected ARPE-19 cells from oxidative damage”. For the same molecule, the activation at 0.1 µM ([1]; read-out: Estradiol activity at 100 nM of NRBA, ER-β, 100 nM compound compared to 1 nM estradiol) was 52.7% and the “Estradiol activity at 100 nM” value [2] was 50%.
COc1ccc(-c2coc3cc(O)cc(O)c3c2=O)cc1 [Biochanin A, reference compound] was tested, and the “Proliferation of RASMC” value [6] was “inhibited the proliferation of RASMC in a dose-dependent manner” and the EC50 [6] was 9790 nM.
COc1cc(O)c2c(=O)n(-c3ccc(O)cc3)ccc2c1C#N [12q, 8-hydroxy-2-(4-hydroxyphenyl)-6-methoxy-1-oxo-1,2-dihydroisoquinoline-5-carbonitrile] was tested, and the activation at 0.1 µM [1, 8] was 10% and the “Estradiol activity at 100 nM” value [2] was 25%.
Oc1ccc(-n2cc(Br)c3cc(O)ccc3c2=S)cc1 [12r, 4-bromo-6-hydroxy-2-(4-hydroxyphenyl)isoquinoline-1(2H)-thione] gave an inhibition at 0.1 µM [3] of 75.5% and an inhibition at 0.1 µM [4] of 35.7%.
COc1ccc(-c2cn(-c3ccc(O)cc3)c(=O)c3ccc(O)cc23)cc1 [15b, 6-hydroxy-2-(4-hydroxyphenyl)-4-(4-methoxyphenyl)isoquinolin-1(2H)-one] was tested, and the “Ki Ratio (ER-α/ER-β)” value [3] was 8.3.
For O=c1c2c(O)cc(O)cc2c(Br)cn1-c1ccc(O)c(F)c1 [12z, 4-bromo-6,8-dihydroxy-2-(3-fluoro-4-hydroxyphenyl)isoquinolin-1(2H)-one], the “Mean of Maximal % Decrease of the PE constriction of the aortic ring” value [5] was 83.58%, the EC50 [5] was 15100 nM and the “Ki Ratio (ER-α/ER-β)” value [3] was 12. For the same molecule, the Ki [3] was 3 nM, the inhibition at 0.1 µM [3] was 95.3% and the EC50 ([6]; Rattus norvegicus) was 25000 nM. For the same molecule, the inhibition at 0.1 µM [4] was 52.8%, the “Prevention of ROS formation / oxidative stress” value [7] was “able to prevent ROS formation as well as estradiol; also recorded: protected ARPE-19 cells from oxidative damage” and the ER-β agonist activity [1] was “ER-β agonist activity”.
For O=c1c2ccc(O)cc2c(Br)cn1-c1ccc(O)c(F)c1 [12d, 4-bromo-2-(3-fluoro-4-hydroxyphenyl)-6-hydroxy-isoquinolin-1(2H)-one], the inhibition at 0.1 µM [3] was 38.7% and the inhibition at 0.1 µM [4] was 0%.
With O=c1c2c(O)cc(O)cc2c(-c2ccccc2)cn1-c1ccc(O)cc1 [15h, 6,8-dihydroxy-2-(4-hydroxyphenyl)-4-phenylisoquinolin-1(2H)-one] the “Ki Ratio (ER-α/ER-β)” value [3] was 41.1 and the Ki [4] was 124 nM.
With O=c1c2c(O)cc(O)cc2ccn1-c1ccc(O)c(F)c1 [12s, 2-(3-fluoro-4-hydroxyphenyl)-6,8-dihydroxyisoquinolin-1(2H)-one] the “Ki Ratio (ER-α/ER-β)” value [3] was 25, the inhibition at 0.1 µM [3] was 52.8% and the inhibition at 0.1 µM [4] was 4.5%. The ER-β agonist activity [1] was “ER-β agonist activity”, the activation at 0.1 µM [1, 8] was 76.9% and the “Estradiol activity at 100 nM” value [2] was 29%.
O=c1c2c(O)cc(O)c(Br)c2ccn1-c1ccc(O)cc1 [12m, 5-bromo-6,8-dihydroxy-2-(4-hydroxyphenyl)isoquinolin-1(2H)-one] was tested, and the inhibition at 0.1 µM [3] was 0% and the inhibition at 0.1 µM [4] was 5.2%.
In the case of O=c1c2ccc(O)cc2c(Cl)cn1-c1ccc(O)cc1 [12f, 4-chloro-6-hydroxy-2-(4-hydroxyphenyl)-isoquinolin-1(2H)-one], the “Ki Ratio (ER-α/ER-β)” value [3] is reported as 61, the inhibition at 0.1 µM [3] is reported as 47.5% and the inhibition at 0.1 µM [4] is reported as 0%. For the same molecule, the ER-β agonist activity [1] was “ER-β agonist activity”.
O=c1c2ccc(O)cc2c(I)cn1-c1ccc(O)c(F)c1 [12n, 2-(3-fluoro-4-hydroxyphenyl)-6-hydroxy-4-iodoisoquinolin-1(2H)-one] gave an inhibition at 0.1 µM [3] of 8.7% and an inhibition at 0.1 µM [4] of 6.2%.
In the case of O=c1c2ccc(O)cc2c(Cl)cn1-c1ccc(O)c(F)c1 [12g, 4-chloro-2-(3-fluoro-4-hydroxyphenyl)-6-hydroxy-isoquinolin-1(2H)-one], the inhibition at 0.1 µM [3] is reported as 29.4% and the inhibition at 0.1 µM [4] is reported as 0%.

Source: patent publication US9604931B2, “Nuclear receptor binding agents” (GTx, Inc., priority 2007, dated 2017)
